Results taken from US8466088B2, “Herbicidal compositions containing benzoylpyrazole compounds” (Ishihara Sangyo Kaisha, Ltd., priority 2007, dated 2013).
Read-outs that look alike come from different tables or passages of the source.

Columns and labels:
velvetleaf = experiment: Example 1: pot test, foliar treatment, visually observed growth inhibition of velvetleaf; assay type: in vivo, Abutilon theophrasti MEDIC.
Source text: (§1) When the herbicidal activity in a case where two active ingredients are combined, is larger than the simple sum of the respective herbicidal activities of the two active ingredients (the expected activity), it is called a synergistic effect. The activity expected by the combination of two active ingredients can be calculated as follows (Colby S. R., “Weed”, vol. 15, p. 20-22, 1967). E=α+β−(α×β+100) where
(§2) α: growth inhibition rate when treated with x (g/ha) of herbicide X,
(§3) β: growth inhibition rate when treated with y (g/ha) of herbicide Y,
(§4) E: growth inhibition rate expected when treated with x (g/ha) of herbicide X and y (g/ha) of herbicide Y.
(§5) That is, when the actual growth inhibition rate (measured value) is larger than the growth inhibition rate by the above calculation (calculated value), the activity by the combination can be regarded as showing a synergistic effect.
(§6) Upland field soil was put into a 1/1,000,000 hectare pot, and seeds of various plants were sown. When the respective plants reached predetermined leaf stage, herbicidal compositions in predetermined amounts were diluted with water in an amount corresponding to 300 L/ha and applied for foliar treatment by a small sprayer.
(§7) Further, in accordance with the above Colby's formula, the growth inhibition rate (calculated value) was calculated. In Tables, with respect to the compound A, Compound Nos. in Table 1 or 3 are described, and with respect to other herbicidal compounds, common names are described.

crabgrass = experiment: Example 1: pot test, foliar treatment, visually observed growth inhibition of crabgrass; assay type: in vivo
Source text: as §1, §2, §3, §4, §5, §6, §7

[1] = 3.5 to 5.0 leaf stage, 22nd day after application, 100 g/ha
[2] = Digitaria sanguinalis, foliar, read-out: Growth inhibition rate (%) of crabgrass, Measured value
[3] = Abutilon theophrasti, foliar, 2.5 to 3.3 leaf stage, 21st day after application, read-out: Growth inhibition rate (%) of velvetleaf, Measured value
[4] = Abutilon theophrasti, foliar, 3.2 to 4.1 leaf stage, 21st day after application, read-out: Growth inhibition rate (%) of velvetleaf, Measured value

CCSC(=O)Oc1c(C(=O)c2ccc(S(C)(=O)=O)c(OCCOC)c2C)cnn1C [No. 55, 5-(ethylthio)carbonyloxy-1-methylpyrazol-4-yl 3-(2-methoxyethoxy)-2-methyl-4-(methylsulfonyl)phenyl ketone]
Growth inhibition rate (%) of velvetleaf, Measured value (velvetleaf; 3.0 to 3.5 leaf stage, 21st day after application, 15 g/ha): 89%
inhibition at 7 g/ha (velvetleaf; Abutilon theophrasti, foliar, 2.0 to 2.5 leaf stage, 21st day after application, 7 g/ha, read-out: Growth inhibition rate (%) of velvetleaf, Measured value): 65%
inhibition at 7 g/ha (velvetleaf; Abutilon theophrasti, foliar, 2.0 to 2.8 leaf stage, 21st day after application, 7 g/ha, read-out: Growth inhibition rate (%) of velvetleaf, Measured value): 70%
inhibition at 15 g/ha (velvetleaf; Abutilon theophrasti, foliar, 2.0 to 2.8 leaf stage, 21st day after application, 15 g/ha, read-out: Growth inhibition rate (%) of velvetleaf, Measured value): 90%
inhibition at 15 g/ha (velvetleaf; Abutilon theophrasti, foliar, 3.0 to 3.5 leaf stage, 21st day after application, 15 g/ha, read-out: Growth inhibition rate (%) of velvetleaf, Measured value): 75%
Growth inhibition rate (%) of crabgrass, Measured value (crabgrass; 4.0 to 4.5 leaf stage, 21st day after application, 15 g/ha): 85%
inhibition at 7 g/ha (crabgrass; Digitaria sanguinalis, foliar, 3.0 to 4.3 leaf stage, 21st day after application, 7 g/ha, read-out: Growth inhibition rate (%) of crabgrass, Measured value): 83%
inhibition at 15 g/ha (crabgrass; Digitaria sanguinalis, foliar, 3.0 to 4.3 leaf stage, 21st day after application, 15 g/ha, read-out: Growth inhibition rate (%) of crabgrass, Measured value): 95%
inhibition at 7 g/ha (crabgrass; Digitaria sanguinalis, foliar, 3.2 to 4.2 leaf stage, 21st day after application, 7 g/ha, read-out: Growth inhibition rate (%) of crabgrass, Measured value): 80%
inhibition at 15 g/ha (crabgrass; Digitaria sanguinalis, foliar, 3.2 to 4.2 leaf stage, 21st day after application, 15 g/ha, read-out: Growth inhibition rate (%) of crabgrass, Measured value): 98%
inhibition at 7 g/ha (crabgrass; Digitaria sanguinalis, foliar, 3.5 to 4.0 leaf stage, 21st day after application, 7 g/ha, read-out: Growth inhibition rate (%) of crabgrass, Measured value): 95%
inhibition at 15 g/ha (crabgrass; Digitaria sanguinalis, foliar, 4.0 to 4.5 leaf stage, 21st day after application, 15 g/ha, read-out: Growth inhibition rate (%) of crabgrass, Measured value): 73%

CCn1ncc(C(=O)c2ccc(S(C)(=O)=O)c(OCCOC)c2C)c1O [No. 2-161]
Growth inhibition rate (%) of velvetleaf, Measured value (velvetleaf; 3.0 to 3.8 leaf stage, 15th day after application, 3.5 g/ha): 60%
Growth inhibition rate (%) of velvetleaf, Measured value (velvetleaf; 3.0 to 3.8 leaf stage, 15th day after application, 7 g/ha): 60%
Growth inhibition rate (%) of velvetleaf, Measured value (velvetleaf; 3.0 to 3.8 leaf stage, 28th day after application, 3.5 g/ha): 45%
Growth inhibition rate (%) of velvetleaf, Measured value (velvetleaf; 3.0 to 3.8 leaf stage, 28th day after application, 7 g/ha): 65%
Growth inhibition rate (%) of crabgrass, Measured value (crabgrass; 3.3 to 4.2 leaf stage, 28th day after application, 3.5 g/ha): 70%
Growth inhibition rate (%) of crabgrass, Measured value (crabgrass; 3.3 to 4.2 leaf stage, 28th day after application, 7 g/ha): 83%

CCOCCN(C(=O)CCl)C(=C(C)C)c1ccccc1 [Pethoxamid]
Growth inhibition rate (%) of velvetleaf, Measured value (velvetleaf; 3.5 to 4.0 leaf stage, 14th day after application, 200 g/ha): 60%
Growth inhibition rate (%) of crabgrass, Measured value (crabgrass; [1]): 0%

CON(C)C(=O)Nc1ccc(Cl)c(Cl)c1 [Linuron]
inhibition at 250 g/ha (velvetleaf; Abutilon theophrasti, foliar, 3.3 to 4.3 leaf stage, 20th day after application, 250 g/ha, read-out: Growth inhibition rate (%) of velvetleaf, Measured value): 55%
inhibition at 500 g/ha (velvetleaf; Abutilon theophrasti, foliar, 3.3 to 4.3 leaf stage, 20th day after application, 500 g/ha, read-out: Growth inhibition rate (%) of velvetleaf, Measured value): 93%
inhibition at 250 g/ha (crabgrass; Digitaria sanguinalis, foliar, 3.5 to 4.2 leaf stage, 14th day after application, 250 g/ha, read-out: Growth inhibition rate (%) of crabgrass, Measured value): 20%
inhibition at 500 g/ha (crabgrass; Digitaria sanguinalis, foliar, 3.5 to 4.2 leaf stage, 14th day after application, 500 g/ha, read-out: Growth inhibition rate (%) of crabgrass, Measured value): 35%

CS(=O)(=O)c1ccc(C(=O)C2C(=O)CCCC2=O)c(Cl)c1 [Sulcotrione]
inhibition at 15 g/ha (velvetleaf; Abutilon theophrasti, foliar, read-out: Growth inhibition rate (%) of velvetleaf, Measured value, 3.2 to 4.3 leaf stage, 21st day after application, 15 g/ha): 25%
inhibition at 15 g/ha (crabgrass; [2]): 10%
inhibition at 15.6 g/ha (crabgrass; [2]): 50%
inhibition at 31 g/ha (crabgrass; [2]): 65%

CNC.COc1c(Cl)ccc(Cl)c1C(=O)O [Dicamba-dimethylammonium]
Growth inhibition rate (%) of velvetleaf, Measured value (velvetleaf; 2.0 to 2.8 leaf stage, 21st day after application, 100 g/ha): 50%
Growth inhibition rate (%) of velvetleaf, Measured value (velvetleaf; 2.0 to 2.8 leaf stage, 21st day after application, 200 g/ha): 55%
Growth inhibition rate (%) of velvetleaf, Measured value (velvetleaf; 3.0 to 3.8 leaf stage, 28th day after application, 100 g/ha): 50%
Growth inhibition rate (%) of velvetleaf, Measured value (velvetleaf; 3.2 to 5.0 leaf stage, 14th day after application, 100 g/ha): 50%
Growth inhibition rate (%) of velvetleaf, Measured value (velvetleaf; 3.2 to 5.0 leaf stage, 21st day after application, 100 g/ha): 50%
Growth inhibition rate (%) of velvetleaf, Measured value (velvetleaf; 3.5 to 4.3 leaf stage, 21st day after application, 100 g/ha): 50%
Growth inhibition rate (%) of crabgrass, Measured value (crabgrass; 3.0 to 4.3 leaf stage, 21st day after application, 100 g/ha): 0%
Growth inhibition rate (%) of crabgrass, Measured value (crabgrass; 3.0 to 4.3 leaf stage, 21st day after application, 200 g/ha): 0%
Growth inhibition rate (%) of crabgrass, Measured value (crabgrass; [1]): 0%
Growth inhibition rate (%) of crabgrass, Measured value (crabgrass; 3.5 to 5.0 leaf stage, 22nd day after application, 200 g/ha): 0%
Growth inhibition rate (%) of crabgrass, Measured value (crabgrass; 3.7 to 4.6 leaf stage, 21st day after application, 100 g/ha): 0%
Growth inhibition rate (%) of crabgrass, Measured value (crabgrass; 3.7 to 4.6 leaf stage, 21st day after application, 200 g/ha): 15%

CCOCc1c(S(C)(=O)=O)ccc(C(=O)c2cnn(C)c2O)c1C [No. 2-41]
Growth inhibition rate (%) of velvetleaf, Measured value (velvetleaf; 3.2 to 5.0 leaf stage, 14th day after application, 3.5 g/ha): 70%
Growth inhibition rate (%) of velvetleaf, Measured value (velvetleaf; 3.2 to 5.0 leaf stage, 21st day after application, 3.5 g/ha): 60%
Growth inhibition rate (%) of crabgrass, Measured value (crabgrass; 3.8 to 5.2 leaf stage, 21st day after application, 3.5 g/ha): 35%

CC(C)N1C(=O)c2ccccc2NS1(=O)=O [Bentazone-sodium]
inhibition at 150 g/ha (velvetleaf; Abutilon theophrasti, foliar, 2.0 to 2.5 leaf stage, 21st day after application, 150 g/ha, read-out: Growth inhibition rate (%) of velvetleaf, Measured value): 95%
inhibition at 100 g/ha (velvetleaf; Abutilon theophrasti, foliar, 3.0 to 4.0 leaf stage, 21st day after application, 100 g/ha, read-out: Growth inhibition rate (%) of velvetleaf, Measured value): 0%
inhibition at 200 g/ha (velvetleaf; Abutilon theophrasti, foliar, 3.0 to 4.0 leaf stage, 21st day after application, 200 g/ha, read-out: Growth inhibition rate (%) of velvetleaf, Measured value): 20%
inhibition at 200 g/ha (crabgrass; Digitaria sanguinalis, foliar, 3.2 to 4.1 leaf stage, 21st day after application, 200 g/ha, read-out: Growth inhibition rate (%) of crabgrass, Measured value): 0%
inhibition at 200 g/ha (crabgrass; Digitaria sanguinalis, foliar, 4.1 to 5.3 leaf stage, 14th day after application, 200 g/ha, read-out: Growth inhibition rate (%) of crabgrass, Measured value): 0%

N#Cc1cc(Br)c(O)c(Br)c1 [Bromoxynil, bromoxynil, reference compound]
inhibition at 62.5 g/ha (velvetleaf; Abutilon theophrasti, foliar, 2.4 to 3.2 leaf stage, on the 22nd day after application, foliar, active ingredient amount 62.5 g/ha, read-out: Growth inhibition rate (%) of velvetleaf, Measured value): 35%
inhibition at 77 g/ha (velvetleaf; [3]): 30%
inhibition at 165 g/ha (velvetleaf; [3]): 40%
inhibition at 77 g/ha (velvetleaf; [4]): 0%
inhibition at 165 g/ha (velvetleaf; [4]): 30%
inhibition at 165 g/ha (velvetleaf; Abutilon theophrasti, foliar, 4.0 to 4.4 leaf stage, 22nd day after application, read-out: Growth inhibition rate (%) of velvetleaf, Measured value): 50%
inhibition at 165 g/ha (crabgrass; Digitaria sanguinalis, foliar, 2.7 to 3.6 leaf stage, 21st day after application, read-out: Growth inhibition rate (%) of crabgrass, Measured value): 0%
inhibition at 77 g/ha (crabgrass; Digitaria sanguinalis, foliar, 4.0 to 5.0 leaf stage, 21st day after application, 77 g/ha, read-out: Growth inhibition rate (%) of crabgrass, Measured value): 0%
inhibition at 165 g/ha (crabgrass; Digitaria sanguinalis, foliar, 4.0 to 5.0 leaf stage, 21st day after application, read-out: Growth inhibition rate (%) of crabgrass, Measured value): 0%

CCCCCCCC(=O)Oc1c(Br)cc(C#N)cc1Br [Bromoxynil-octanoate]
inhibition at 63 g/ha (velvetleaf; Abutilon theophrasti, foliar, 2.0 to 2.5 leaf stage, 21st day after application, read-out: Growth inhibition rate (%) of velvetleaf, Measured value): 25%
inhibition at 50 g/ha (velvetleaf; Abutilon theophrasti, foliar, 3.0 to 3.8 leaf stage, 15th day after application, read-out: Growth inhibition rate (%) of velvetleaf, Measured value): 0%
inhibition at 50 g/ha (velvetleaf; Abutilon theophrasti, foliar, 3.2 to 5.0 leaf stage, 14th day after application, read-out: Growth inhibition rate (%) of velvetleaf, Measured value): 20%
inhibition at 50 g/ha (velvetleaf; Abutilon theophrasti, foliar, 3.2 to 5.0 leaf stage, 21st day after application, read-out: Growth inhibition rate (%) of velvetleaf, Measured value): 10%
inhibition at 63 g/ha (velvetleaf; Abutilon theophrasti, foliar, 3.3 to 4.2 leaf stage, 22nd day after application, read-out: Growth inhibition rate (%) of velvetleaf, Measured value): 45%
inhibition at 125 g/ha (velvetleaf; Abutilon theophrasti, foliar, 3.3 to 4.2 leaf stage, 22nd day after application, 125 g/ha, read-out: Growth inhibition rate (%) of velvetleaf, Measured value): 50%
inhibition at 50 g/ha (velvetleaf; Abutilon theophrasti, foliar, 3.5 to 4.3 leaf stage, 21st day after application, read-out: Growth inhibition rate (%) of velvetleaf, Measured value): 0%
inhibition at 63 g/ha (crabgrass; Digitaria sanguinalis, foliar, 3.5 to 4.0 leaf stage, 21st day after application, 63 g/ha, read-out: Growth inhibition rate (%) of crabgrass, Measured value): 0%

CCOc1c(S(C)(=O)=O)ccc(C(=O)c2cnn(C)c2O)c1C [No. 2-19]
Growth inhibition rate (%) of velvetleaf, Measured value (velvetleaf; 3.2 to 5.0 leaf stage, 14th day after application, 7 g/ha): 60%
Growth inhibition rate (%) of velvetleaf, Measured value (velvetleaf; 3.2 to 5.0 leaf stage, 21st day after application, 7 g/ha): 50%
Growth inhibition rate (%) of crabgrass, Measured value (crabgrass; 3.8 to 5.2 leaf stage, 21st day after application, 7 g/ha): 30%
